According to patent US20220187282A1, “CARDIOMYOCYTE PROLIFERATION” (The Council of the Queensland Institute of Medical Research, priority 2019, published 2022):

Tests used:
Type in all cases: biochemical
kinases [1] = target: kinases (Homo sapiens, UniProt P49336); details: CDK8/cyclin C FRET-Lantha SP; Test Conc(μM) 1
kinases [2] = target: kinases (Homo sapiens, UniProt Q9UBF8); details: PI4KB FRET-Adapta SP; Test Conc(μM):ATP Conc(μM) 1:5
kinases [3] = target: kinases (Homo sapiens, UniProt P25098); details: ADRBK1 (GRK2) FRET-Z-Lyte SP; Test Conc(μM):ATP Conc(μM) 1:10
kinases [4] = target: kinases (Homo sapiens, UniProt P78368); details: CSNK1G2 (CK1gamma2) Z-Lyte SP; Test Conc(μM):ATP Conc(μM) 1:5
kinases [5] = target: kinases (Homo sapiens, UniProt P07947); details: YES1 FRET-Z-Lyte SP; Test Conc(μM):ATP Conc(μM) 1:25
kinases [6] = target: kinases (Homo sapiens, UniProt P57058); details: HUNK FRET-Lantha SP; Test Conc(μM) 1
kinases [7] = target: kinases (Homo sapiens, UniProt P08631); details: HCK FRET-Z-Lyte SP; Test Conc(μM):ATP Conc(μM) 1:25
kinases [8] = target: kinases (Homo sapiens, UniProt Q13873); details: BMPR2 FRET-Lantha SP; Test Conc(μM) 1
kinases [9] = target: kinases (Homo sapiens, UniProt O14976); details: GAK FRET-Lantha SP; Test Conc(μM) 1
kinases [10] = target: kinases (Homo sapiens, UniProt P19784); details: CSNK2A2 (CK2alpha2) Z-Lyte SP; Test Conc(μM):ATP Conc(μM) 1:50
kinases [11] = target: kinases (Homo sapiens, UniProt Q99755); details: PIP5K1A FRET-Adapta SP; Test Conc(μM):ATP Conc(μM) 1:10
kinases [12] = target: kinases (Homo sapiens, UniProt P54756); details: EPHA5 FRET-Z-Lyte SP; Test Conc(μM):ATP Conc(μM) 1:150
kinases [13] = target: kinases (Homo sapiens, UniProt P29317); details: EPHA2 FRET-Z-Lyte SP; Test Conc(μM):ATP Conc(μM) 1:75
kinases [14] = target: kinases (Homo sapiens, UniProt Q9UQB9); details: AURKC (Aurora C) Z-Lyte SP; Test Conc(μM):ATP Conc(μM) 1:25
kinases [15] = target: kinases (Homo sapiens, UniProt Q9H093); details: NUAK2 FRET-Lantha SP; Test Conc(μM) 1
kinases [16] = target: kinases (Homo sapiens, UniProt P36894); details: BMPR1A (ALK3) FRET-Lantha SP; Test Conc(μM) 1
kinases [17] = target: kinases (Homo sapiens, UniProt Q9UHD2); details: TBK1 FRET-Z-Lyte SP; Test Conc(μM):ATP Conc(μM) 1:25
kinases [18] = target: kinases (Homo sapiens, UniProt Q07002); details: CDK18/cyclin Y FRET-Z-Lyte SP; Test Conc(μM):ATP Conc(μM) 1:75
kinases [19] = target: kinases (Homo sapiens, UniProt Q02763); details: TEK (Tie2) *Mn* FRET-Z-Lyte SP; Test Conc(μM):ATP Conc(μM) 1:10
kinases [20] = target: kinases (Homo sapiens, UniProt Q9NYL2); details: ZAK FRET-Lantha SP; Test Conc(μM) 1
kinases [21] = target: kinases (Homo sapiens, UniProt Q9Y243); details: AKT3 (PKB gamma) Z-Lyte SP; Test Conc(μM):ATP Conc(μM) 1:100
kinases [22] = target: kinases (Homo sapiens, UniProt O94768); details: STK17B (DRAK2) FRET-Lantha SP; Test Conc(μM) 1
kinases [23] = target: kinases (Homo sapiens, UniProt P15735); details: PHKG2 FRET-Z-Lyte SP; Test Conc(μM):ATP Conc(μM) 1:10
kinases [24] = target: kinases (Homo sapiens, UniProt Q15349); details: RPS6KA2 (RSK3) FRET-Z-Lyte SP; Test Conc(μM):ATP Conc(μM) 1:10
kinases [25] = target: kinases (Homo sapiens, UniProt Q13188); details: STK3 (MST2) FRET-Z-Lyte SP; Test Conc(μM):ATP Conc(μM) 1:50
kinases [26] = target: kinases (Homo sapiens, UniProt Q13043); details: STK4 (MST1) FRET-Z-Lyte SP; Test Conc(μM):ATP Conc(μM) 1:50
kinases [27] = target: kinases (Homo sapiens, UniProt Q16584); details: MAP3K11 (MLK3) FRET-Lantha SP; Test Conc(μM) 1
kinases [28] = target: kinases (Homo sapiens, UniProt O00418); details: EEF2K FRET-Z-Lyte SP; Test Conc(μM):ATP Conc(μM) 1:10
kinases [29] = target: kinases (Homo sapiens, UniProt P33981); details: TTK FRET-Lantha SP; Test Conc(μM) 1
Sequence of kinases (Homo sapiens, UniProt P33981) (P33981 whole entry): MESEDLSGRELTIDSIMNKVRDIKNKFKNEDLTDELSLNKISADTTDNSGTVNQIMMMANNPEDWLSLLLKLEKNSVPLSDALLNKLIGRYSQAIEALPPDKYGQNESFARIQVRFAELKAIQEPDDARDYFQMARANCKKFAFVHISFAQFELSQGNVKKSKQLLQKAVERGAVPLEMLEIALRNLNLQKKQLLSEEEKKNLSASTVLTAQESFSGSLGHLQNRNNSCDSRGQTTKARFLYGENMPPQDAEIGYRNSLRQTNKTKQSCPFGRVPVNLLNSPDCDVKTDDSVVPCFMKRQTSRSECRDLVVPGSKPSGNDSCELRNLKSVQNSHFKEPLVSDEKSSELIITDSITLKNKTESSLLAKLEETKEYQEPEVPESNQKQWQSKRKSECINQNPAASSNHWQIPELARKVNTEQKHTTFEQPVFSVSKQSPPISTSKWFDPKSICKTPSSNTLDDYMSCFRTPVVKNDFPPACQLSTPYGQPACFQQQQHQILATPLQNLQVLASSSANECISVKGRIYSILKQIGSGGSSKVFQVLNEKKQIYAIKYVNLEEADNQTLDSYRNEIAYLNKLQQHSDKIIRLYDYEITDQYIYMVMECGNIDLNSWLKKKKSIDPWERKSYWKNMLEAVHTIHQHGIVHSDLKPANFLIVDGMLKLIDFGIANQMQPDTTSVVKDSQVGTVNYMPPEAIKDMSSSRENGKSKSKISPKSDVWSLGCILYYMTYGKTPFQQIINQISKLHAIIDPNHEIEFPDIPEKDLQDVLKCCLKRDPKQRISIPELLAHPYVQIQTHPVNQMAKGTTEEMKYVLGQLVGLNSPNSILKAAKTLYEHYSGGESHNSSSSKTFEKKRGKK

Sequence of kinases (Homo sapiens, UniProt Q9UBF8) (Q9UBF8 whole entry): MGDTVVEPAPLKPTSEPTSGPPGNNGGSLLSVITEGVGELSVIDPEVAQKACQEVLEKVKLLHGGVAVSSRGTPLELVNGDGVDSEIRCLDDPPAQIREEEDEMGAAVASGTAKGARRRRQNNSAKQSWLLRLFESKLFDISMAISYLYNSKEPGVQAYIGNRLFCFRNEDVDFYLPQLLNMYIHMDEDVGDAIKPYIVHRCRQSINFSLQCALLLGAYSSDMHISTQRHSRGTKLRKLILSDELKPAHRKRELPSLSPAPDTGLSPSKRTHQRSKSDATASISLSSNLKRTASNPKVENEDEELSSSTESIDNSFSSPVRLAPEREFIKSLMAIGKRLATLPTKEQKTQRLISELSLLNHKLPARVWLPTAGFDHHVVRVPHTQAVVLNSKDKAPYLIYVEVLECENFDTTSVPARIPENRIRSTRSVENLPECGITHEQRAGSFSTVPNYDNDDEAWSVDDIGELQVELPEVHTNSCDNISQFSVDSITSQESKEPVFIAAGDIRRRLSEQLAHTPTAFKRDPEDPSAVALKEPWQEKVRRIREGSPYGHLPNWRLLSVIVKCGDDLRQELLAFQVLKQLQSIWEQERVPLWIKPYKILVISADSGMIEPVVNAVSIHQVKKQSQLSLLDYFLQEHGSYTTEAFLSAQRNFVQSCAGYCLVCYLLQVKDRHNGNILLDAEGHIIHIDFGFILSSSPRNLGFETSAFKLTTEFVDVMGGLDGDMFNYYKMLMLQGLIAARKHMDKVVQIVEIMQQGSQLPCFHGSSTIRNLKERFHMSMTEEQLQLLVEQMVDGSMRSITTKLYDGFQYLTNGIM
Sequence of kinases (Homo sapiens, UniProt Q9Y243) (Q9Y243 whole entry): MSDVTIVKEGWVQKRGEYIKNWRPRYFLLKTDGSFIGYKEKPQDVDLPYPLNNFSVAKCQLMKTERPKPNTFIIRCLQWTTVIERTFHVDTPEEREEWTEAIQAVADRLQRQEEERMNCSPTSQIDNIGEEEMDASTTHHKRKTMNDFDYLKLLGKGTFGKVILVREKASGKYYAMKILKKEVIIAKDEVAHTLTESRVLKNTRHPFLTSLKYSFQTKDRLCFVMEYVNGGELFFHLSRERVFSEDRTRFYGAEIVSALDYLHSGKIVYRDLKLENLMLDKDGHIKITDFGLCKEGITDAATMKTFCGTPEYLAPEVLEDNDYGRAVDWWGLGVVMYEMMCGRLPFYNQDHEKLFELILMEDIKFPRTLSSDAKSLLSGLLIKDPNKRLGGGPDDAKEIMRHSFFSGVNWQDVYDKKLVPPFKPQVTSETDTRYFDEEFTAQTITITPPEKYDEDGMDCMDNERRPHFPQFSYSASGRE
Sequence of kinases (Homo sapiens, UniProt P19784) (P19784 whole entry): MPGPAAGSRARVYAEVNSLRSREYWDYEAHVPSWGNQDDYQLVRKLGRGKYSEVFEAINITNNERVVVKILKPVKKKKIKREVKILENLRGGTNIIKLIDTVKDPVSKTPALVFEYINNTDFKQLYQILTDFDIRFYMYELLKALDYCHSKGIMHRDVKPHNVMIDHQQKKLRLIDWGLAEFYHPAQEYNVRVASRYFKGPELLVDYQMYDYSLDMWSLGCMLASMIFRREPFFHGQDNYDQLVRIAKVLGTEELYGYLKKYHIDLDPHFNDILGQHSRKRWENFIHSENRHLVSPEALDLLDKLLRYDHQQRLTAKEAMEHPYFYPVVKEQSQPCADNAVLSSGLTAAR
Sequence of kinases (Homo sapiens, UniProt Q13188) (Q13188 whole entry): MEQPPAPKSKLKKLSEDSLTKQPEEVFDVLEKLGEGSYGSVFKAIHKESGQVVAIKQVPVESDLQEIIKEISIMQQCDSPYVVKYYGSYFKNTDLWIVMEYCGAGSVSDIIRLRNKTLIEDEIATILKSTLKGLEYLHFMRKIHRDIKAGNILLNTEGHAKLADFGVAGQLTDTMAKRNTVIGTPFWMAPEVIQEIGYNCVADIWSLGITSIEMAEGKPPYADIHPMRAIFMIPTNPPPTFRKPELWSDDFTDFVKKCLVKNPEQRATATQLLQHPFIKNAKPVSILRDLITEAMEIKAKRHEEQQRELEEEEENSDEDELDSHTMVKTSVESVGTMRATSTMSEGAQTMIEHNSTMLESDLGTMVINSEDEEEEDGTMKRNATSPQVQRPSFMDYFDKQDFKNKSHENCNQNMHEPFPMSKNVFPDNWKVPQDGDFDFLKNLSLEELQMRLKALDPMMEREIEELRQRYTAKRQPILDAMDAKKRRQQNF
Sequence of kinases (Homo sapiens, UniProt P57058) (P57058 whole entry): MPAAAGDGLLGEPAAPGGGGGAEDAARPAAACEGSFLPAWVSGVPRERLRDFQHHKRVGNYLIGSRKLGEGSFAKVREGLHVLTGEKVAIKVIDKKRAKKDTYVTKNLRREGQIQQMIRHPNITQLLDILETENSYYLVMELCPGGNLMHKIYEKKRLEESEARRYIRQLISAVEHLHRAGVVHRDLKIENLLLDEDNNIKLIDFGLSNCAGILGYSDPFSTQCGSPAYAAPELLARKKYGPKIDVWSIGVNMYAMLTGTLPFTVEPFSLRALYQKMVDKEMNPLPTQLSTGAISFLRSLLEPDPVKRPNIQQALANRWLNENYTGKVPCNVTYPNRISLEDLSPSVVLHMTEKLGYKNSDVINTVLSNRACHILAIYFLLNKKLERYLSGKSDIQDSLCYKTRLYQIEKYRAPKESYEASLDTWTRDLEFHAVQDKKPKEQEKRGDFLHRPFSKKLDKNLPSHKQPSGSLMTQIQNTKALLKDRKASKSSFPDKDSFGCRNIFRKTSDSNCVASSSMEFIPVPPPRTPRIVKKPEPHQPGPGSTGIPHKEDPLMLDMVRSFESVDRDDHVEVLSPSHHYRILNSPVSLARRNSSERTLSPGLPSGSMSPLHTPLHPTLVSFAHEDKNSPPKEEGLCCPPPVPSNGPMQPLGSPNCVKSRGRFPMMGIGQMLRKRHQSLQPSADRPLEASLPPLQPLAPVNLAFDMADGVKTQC
Sequence of kinases (Homo sapiens, UniProt Q13873) (Q13873 27-1038): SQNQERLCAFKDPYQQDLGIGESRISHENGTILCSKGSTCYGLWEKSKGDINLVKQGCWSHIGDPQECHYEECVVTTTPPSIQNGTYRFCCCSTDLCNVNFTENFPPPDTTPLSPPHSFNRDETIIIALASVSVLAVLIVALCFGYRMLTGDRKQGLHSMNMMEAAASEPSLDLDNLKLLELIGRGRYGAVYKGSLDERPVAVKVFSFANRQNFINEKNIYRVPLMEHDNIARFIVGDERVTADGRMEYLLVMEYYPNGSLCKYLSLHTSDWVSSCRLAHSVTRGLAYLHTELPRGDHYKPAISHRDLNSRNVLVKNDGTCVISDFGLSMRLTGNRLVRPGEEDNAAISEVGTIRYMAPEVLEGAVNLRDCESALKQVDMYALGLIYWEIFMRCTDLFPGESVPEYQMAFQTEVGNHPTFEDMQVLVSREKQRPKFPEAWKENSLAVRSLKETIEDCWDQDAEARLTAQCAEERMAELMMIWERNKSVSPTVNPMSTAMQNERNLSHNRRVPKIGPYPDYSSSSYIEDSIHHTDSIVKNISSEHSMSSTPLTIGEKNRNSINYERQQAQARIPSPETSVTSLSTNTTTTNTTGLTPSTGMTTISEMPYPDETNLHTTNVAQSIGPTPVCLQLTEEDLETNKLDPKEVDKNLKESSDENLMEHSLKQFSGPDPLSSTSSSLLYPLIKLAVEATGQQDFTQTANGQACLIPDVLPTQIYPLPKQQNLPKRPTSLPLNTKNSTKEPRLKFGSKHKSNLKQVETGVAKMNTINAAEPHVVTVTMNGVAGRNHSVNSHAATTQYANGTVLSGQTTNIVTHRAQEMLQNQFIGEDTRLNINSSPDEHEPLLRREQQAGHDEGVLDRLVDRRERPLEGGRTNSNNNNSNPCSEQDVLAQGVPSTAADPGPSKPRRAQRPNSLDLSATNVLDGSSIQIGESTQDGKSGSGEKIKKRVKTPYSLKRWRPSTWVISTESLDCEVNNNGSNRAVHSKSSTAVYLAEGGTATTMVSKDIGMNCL
Sequence of kinases (Homo sapiens, UniProt Q9UQB9) (Q9UQB9 whole entry): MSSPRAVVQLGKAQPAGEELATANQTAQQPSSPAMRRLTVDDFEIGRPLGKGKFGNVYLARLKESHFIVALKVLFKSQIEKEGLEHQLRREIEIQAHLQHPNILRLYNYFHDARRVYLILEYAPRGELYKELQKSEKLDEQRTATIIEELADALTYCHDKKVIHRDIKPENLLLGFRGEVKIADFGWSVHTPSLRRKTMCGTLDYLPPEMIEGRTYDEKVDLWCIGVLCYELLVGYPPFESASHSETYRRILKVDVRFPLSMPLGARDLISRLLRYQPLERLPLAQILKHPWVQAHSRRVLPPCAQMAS

Compound: Cc1cc(Oc2ccnc(Nc3ccc(S(N)(=O)=O)cc3)c2)c(-c2ccccn2)nc1C [compound 65]
- Mean Inhib (%) (kinases [1]): 5.9%
- Mean Inhib (%) (kinases [2]): 0.5%
- Mean Inhib (%) (kinases [3]): 1.0%
- Mean Inhib (%) (kinases [4]): 5.9%
- Mean Inhib (%) (kinases [5]): 56.6%
- Mean Inhib (%) (kinases [6]): 11.5%
- Mean Inhib (%) (kinases [7]): 30.9%
- Mean Inhib (%) (kinases [8]): 2.7%
- Mean Inhib (%) (kinases [9]): 39.3%
- Mean Inhib (%) (kinases [10]): 9.5%
- Mean Inhib (%) (kinases [11]): 2.4%
- Mean Inhib (%) (kinases [12]): 65.2%
- Mean Inhib (%) (kinases [13]): 30.7%
- Mean Inhib (%) (kinases [14]): 4.2%
- Mean Inhib (%) (kinases [15]): 9.4%
- Mean Inhib (%) (kinases [16]): 83.6%
- Mean Inhib (%) (kinases [17]): 4.2%
- Mean Inhib (%) (kinases [18]): 1.2%
- Mean Inhib (%) (kinases [19]): −7.9%
- Mean Inhib (%) (kinases [20]): 78.3%
- Mean Inhib (%) (kinases [21]): 4.2%
- Mean Inhib (%) (kinases [22]): 2.0%
- Mean Inhib (%) (kinases [23]): 4.0%
- Mean Inhib (%) (kinases [24]): 0.2%
- Mean Inhib (%) (kinases [25]): 1.1%
- Mean Inhib (%) (kinases [26]): 8.7%
- Mean Inhib (%) (kinases [27]): −0.8%
- Mean Inhib (%) (kinases [28]): 3.7%
- Mean Inhib (%) (kinases [29]): −2.0%

Compound: Cc1ccc(NC(=O)c2ccnc(N3CCOCC3)c2)cc1Nc1ccnc(N2CC(C)OC(C)C2)n1 (stereo not shown) [compound 3]
- Mean Inhib (%) (kinases [1]): 8.6%
- Mean Inhib (%) (kinases [2]): −9.0%
- Mean Inhib (%) (kinases [3]): 8.4%
- Mean Inhib (%) (kinases [4]): 3.9%
- Mean Inhib (%) (kinases [5]): 5.8%
- Mean Inhib (%) (kinases [6]): 5.7%
- Mean Inhib (%) (kinases [7]): 6.4%
- Mean Inhib (%) (kinases [8]): −4.1%
- Mean Inhib (%) (kinases [9]): 29.0%
- Mean Inhib (%) (kinases [10]): 9.9%
- Mean Inhib (%) (kinases [11]): −2.9%
- Mean Inhib (%) (kinases [12]): 6.7%
- Mean Inhib (%) (kinases [13]): 10.8%
- Mean Inhib (%) (kinases [14]): 9.3%
- Mean Inhib (%) (kinases [15]): 14.1%
- Mean Inhib (%) (kinases [16]): −1.5%
- Mean Inhib (%) (kinases [17]): −0.8%
- Mean Inhib (%) (kinases [18]): 2.7%
- Mean Inhib (%) (kinases [19]): −4.4%
- Mean Inhib (%) (kinases [20]): 3.1%
- Mean Inhib (%) (kinases [21]): 5.8%
- Mean Inhib (%) (kinases [22]): 4.7%
- Mean Inhib (%) (kinases [23]): −2.1%
- Mean Inhib (%) (kinases [24]): 9.0%
- Mean Inhib (%) (kinases [25]): 6.9%
- Mean Inhib (%) (kinases [26]): −3.1%
- Mean Inhib (%) (kinases [27]): −0.7%
- Mean Inhib (%) (kinases [28]): 5.5%
- Mean Inhib (%) (kinases [29]): 6.5%
